Like-named read-outs stand apart in the source and are kept apart here.
Assays:
THP-1-Lucia NFκB cells = assay: THP1-Lucia NFκB reporter assay (LPS, IL-1β, TNFα triggering); type: cell-based; settings: for EC50: 24 h incubation
Description: This assay was used to evaluate the IRAK4 selectivity and potency of the compounds of the invention upon IRAK4 dependent (LPS and IL-1β) and independent triggering (TNFα), in a THP1-Lucia NFκB reporter assay.
THP-1-Lucia NFκB cells (Invivogen—5, rue Jean Rodier 31400 Toulouse France—cat #thp1-nfkb) were cultivated as recommended by the supplier using split cycles each cycle comprising a succession of thawing/expansion/seeding. The data reported were generated using cells having between 3 to 9 cycles. On the day of the experiment THP-1-Lucia NFκB cells were counted and seeded at a density of 1,000,000 cells/mL in culture medium (RPMI 1640 (Gibco, Cat #52400-025)+10% FBS (Sigma, Cat #F7524-500ML)+1% P/S (Gibco, Cat #15140-122)) by pipetting 54 μL/well in a 384 well plate. Thereafter, 6 μL of a 10× trigger solution was added to all wells, at final concentrations of 2.5, 10 and 3 ng/mL for respectively LPS, TNFα and IL-1β, except for ‘no trigger wells’ where 6 μL culture medium only was added.
After trigger addition, compounds were added with a digital compound dispenser, in a 8-points concentration range, using 3-fold dilution steps and normalizing the final DMSO concentration to 0.2% DMSO in all wells.
After 24 h incubation at 37° C., 5% CO2, 40 μL of supernatant was collected per well and transferred to a new 384 well plate that was then stored at −20° C. until further use.
For the readout, supernatant samples were thawed on ice and 5 μL sample was transferred from each well to a new 384-well plate. 20 μL of Quanti-Luc solution (Quanti-Luc powder (Invivogen, Cat #rep-qlc1) dissolved in 25 mL sterile water as indicated by the manufacturer) was added to each well after which luminescence was immediately measured on an Envision instrument.
To measure the inhibition of LPS/TNFα/IL-1β-induced NFκB-reporter activity, percentage inhibition (PIN) values were calculated for all concentrations tested, compared to controls. […]

[1] = tested on: MIA induced inflammatory hypersensitivity to pain; assay: MIA rat pain model (weight bearing); type: in vivo, Male Sprague Dawley
Description: 5.11.1. Principle of the Assay
The mono-iodoacetate (MIA) model has become a standard model established by Van der Kraan (van der Kraan et al., 1989) for modelling joint disruption in OA in rat.
Intra-articular injection of MIA in rodents reproduces OA-like lesions and functional impairment that can be analyzed and quantified. MIA is an inhibitor of […], disrupting cellular glycolysis and eventually resulting in cell death (van der Kraan et al., 1989).
The MIA pain mouse model described by Pitcher et al. (Pitcher et al. 2016) is used to evaluate the effect of a test compound against tactile allodynia by intra-articular injection of MIA causes chondrocyte cell death, leading to cartilage degeneration and subsequent subchondral bone alterations such as appearance of bone osteophytes (Janusz et al., 2001).
MIA is the one most often used, particularly to test the efficacy of pharmacologic agents to treat pain, as this model generates a reproducible, robust, and rapid pain-like phenotype that can be graded by altering MIA dosage.
Male Sprague Dawley (250-300 g) were housed at 22±1° C. and in light-controlled environment (lights on from 7 am to 8 pm) with ad libitum access to food and water.
Inflammatory hypersensitivity to pain was induced by an injection of Monosodium Iodoacetate (MIA) 25 ul 80 mg/ml solution, into the left knee joint. Animals developed inflammatory response within 3 days post MIA.
The test compounds were administered to the treatment groups on a […] basis, starting from day 3 (D3), and continued until the end-point day on D28.
On day 3, weight-bearing measurements were taken and animals ranked and randomized to treatment groups.
On the test days, pre-dose allodynia was evaluated prior to dosing, and the effects of the administered compounds assessed 2 hours post dosing.
The test compounds were administered to the treatment groups on daily basis, according to treatment group, (some were dosed days 3-7 post MIA, and some were dosed days 24-28 post MIA) and 2 hours post dosing weight-bearing measurements were taken.
The negative control group (n=6) was daily dosed per os with the vehicle (methylcellulose, MC 0.5%), the positive control group (n=10) was daily dosed per os with Celecoxib (50 mg/kg), and the test compound group (n=10) was daily dosed per os, with 0.5% MC/Solutol for days 3-7 post MIA (Inflammatory Phase). […]
For each readout, mean and sem are calculated. A difference statistically significant between intact or treated groups and in MIA vehicle group is evaluated with Prism software using a Two-way ANOVA (for treatment groups) followed by a Dunnett's multiple comparisons post-hoc test. *: p<0.05; **: p<0.01; ***: p<0.001 versus MIA Vehicle group.

## COc1cn2nc(CCC(C)(C)O)cc2cc1NC(=O)c1cccn(C2CC2)c1=O [Compound 1, 1-cyclopropyl-N-[2-(3-hydroxy-3-methylbutyl)-6-methoxypyrazolo[1,5-a]pyridin-5-yl]-2-oxopyridine-3-carboxamide]
THP-1-Lucia NFκB cells; IL-1β trigger 3 ng/mL, read-out: IL-1β driven NFκB-reporter activity, average pEC50 (converted)
  EC50: 0.1 µM
THP-1-Lucia NFκB cells; LPS trigger 2.5 ng/mL, read-out: LPS driven NFκB-reporter activity, average pEC50 (converted)
  EC50: 0.1 µM
THP-1-Lucia NFκB cells; TNFα trigger 10 ng/mL, 24 h incubation (IRAK4 independent)
  TNFα mediated NFκB-reporter activity: no activity was observed
[1]; 5 mg/kg daily per os, days 5-7
  reversal of inflammatory response on weight bearing: significantly reversed the inflammatory response
[1]; 5 mg/kg daily per os, days 26-28
  reversal of inflammatory response on weight bearing: significantly reversed the inflammatory response
[1]; 30 mg/kg daily per os, days 3-7
  reversal of inflammatory response on weight bearing: significantly reversed the inflammatory response
[1]; 30 mg/kg daily per os, days 26-28
  reversal of inflammatory response on weight bearing: significantly reversed the inflammatory response

Source: US20220218679A1, “NOVEL COMPOUNDS AND PHARMACEUTICAL COMPOSITIONS THEREOF FOR THE TREATMENT OF INFLAMMATORY DISORDERS” (Galapagos NV, priority 2019, published 2022)
